From patent US8680129B2, “Compounds, composition, methods, targets for cancer therapy” (priority 2008, dated 2014)
Like-named read-outs stand apart in the source and are kept apart here. Values belong to the compound of their own block, whether it stands above or below them.

Experiments:
UM-SCC-6 cells = test: pUC19 DNA transfection plus chemotherapeutic drug, cell viability; format: cell-based, human; conditions: for IC50: Homo sapiens, read-out: IC50 of 5-FU; for IC50 of Cis-Platinum: UM-SCC-6 cells
Experimental: UM-SCC-6 cells were transfected with pUC19 DNA, pcDNA3, pUC19+pcDNA3, IKK1-KA+pUC19, IKK2-KA+pUC19, and IKK1-KA+IKK2-KA+pUC19, IKK1-KA+pcDNA3, IKK2-KA+pcDNA3, or IKK1-KA+IKK2-KA+pcDNA3, for 48 hours and, treated with variable doses of 5-FU (FIG. 6A) or Cis-Platinum (FIG. 6B) for […] respectively. Cell viabilities were measured in 72 and 96 hours respectively after drug treatment.

A431 cells = test: WST-1r and apigenin dose-response, cell viability by CCK8; format: cell-based
Experimental: (§1) Method: UM-SCC6, MDA-MB-231, Cal27, HT1080, T294, B6-5 and A431 cells were treated with 3% or 10% of WST-1r or 10, 30, or 100 μM apigenin or combination of variable concentrations of WST-1r with apigenin in parallel with untreated control cells and DMSO control for 4 hours, then, the treatments were removed and the cells, thus, treated were changed to normal growth medium and maintained in culture for another 24 hours. DMSO was used as vehicle control. Cell viabilities were measured by CCK8 Kit and normalized to % of untreated control calls.

MDA-MB-231 cells = test: as above; format: cell-based
Experimental: as §1

UM-SCC6 cells [1] = test: CCK8, XTT, WST-1r comparison in combination with apigenin, cell viability; format: cell-based, human; conditions: for IC50: Homo sapiens, read-out: Apigenin 1050
Experimental: Method: HT1080 and UM-SCC6 cells were treated with 10% of WST-1r, CCK8 or XTT in combination with variable doses of apigenin for 4 hours and, then changed to normal growth medium for another 24 hours. Cell viability was measured with CCK8 kit.

[2] = system: UM-SCC6, Cal27 and HEKa cells; test: Modified WST-1r and Apigenin, cancer versus non-cancer cells, single agents; format: cell-based, human; conditions: 10% modified WST-1r (mPMS 20 μM, WST-1c 1 mM) or Apigenin 30 or 100 μM, 4 hours then 24 hours
Experimental: Comparison of cell responses to modified WST-1r and Apigenin combination treatment between cancer cells and non-cancer cells. UM-SCC6, Cal27 human head and neck cancer cell lines and primary cultured human […] keratinocytes (HEKa) as labeled were treated with 10% modified WST-1r (mPMS 20 μM, WST-1c 1 mM) with (WST-1r 10) or without (WST-1r 0) 10% modified WST-1r in combination with 0 (Apigenin 0), 30 (Apigenin 30) or 100 (Apigenin 100) μM Apigenin for 4 hours, then, changed to apigenin in the corresponding concentrations for another 24 hours.

HT1080 cells [3] = test: mPMS dose-response with WST-1c and apigenin, cell viability; format: cell-based, human; conditions: mPMS variable with 1 mM WST-1c and 10, 30 or 100 μM apigenin
Experimental: (§2) Method: A & B: HT1080 (FIG. 16A) and UM-SCC6 (FIG. 16B) cells were treated with variable concentrations of mPMS as indicated in combination with 1 mM WST-1c and 10, 30 or 100 μM apigenin for 4 hours and, then, changed to normal growth medium for another 24 hours. Cell viabilities were measured by CCK8 Kit. 1 mM WST-1 only, 0.12 mM mPMS only and 10% WST-1r were used as parallel control. AP 0: Untreated Control, AP 10: 10 μM Apigenin, AP 30: 30 μM Apigenin, AP 100: 100 μM Apigenin.

UM-SCC6 cells [4] = test: as above; format: cell-based, human; conditions: mPMS variable with 1 mM WST-1c and 10, 30 or 100 μM apigenin
Experimental: as §2

[5] = system: ROS generation in UM-SCC6 cells; test: Dose response of ROS generation (CM-H2-DCFDA fluorescence); format: cell-based, human
Experimental: Method: UM-SCC6 cells were labeled with 10 μM CM-H2-DCFDA for 15 minutes and then treated with WST-1r or CCK8 at the indicated amounts in combination with variable doses of apigenin (A) or IKK Inhibitor III (B) for 4 hours. Fluorescence at Ex485/Em535 were measured for detecting ROS generation that labeled by the CM-H2-DCFDA.

[6] = system: UM-SCC6, HT1080, Cal27, SK-Mel-5, and HEKa cells; test: WST-3 or apigenin alone, cell viability, all tested lines; format: cell-based, human; conditions: 50 µM WST-3 or 30 μM apigenin alone, 4 hours then 24 hours
Experimental: (§3) Method: UM-SCC6, HT1080, Cal27, SK-Mel-5, and HEKa cells were treated with 50 or 100 μM WST-3 or 10 or 30 μM apigenin alone, or combination of WST-3 and apigenin at different concentrations for 4 hours with untreated cells as control, then, changed to normal growth medium and remained culture in this medium for another 24 hours. After the 24 hours culture, cell viabilities were measured with CCK8 Kit. Data were normalized to % of untreated control cells.

non cancer HEKa cells = test: WST-3 with apigenin, cell viability by CCK8; format: cell-based, human; conditions: for cell death, single agent: apigenin or WST-3 alone
Experimental: as §3

SK-Mel-5 cells = test: WST-3 with apigenin, cell viability by CCK8; format: cell-based, human; conditions: for cell death, single agent: apigenin or WST-3 alone
Experimental: as §3

[7] = system: phosphorylated JNK in UM-SCC6 cells; test: JNK phosphorylation (FACE Kit); format: cell-based, human; conditions: 4 hours
Experimental: Method: UM-SCC6 cells were treated with WST-1r and apigenin at the indicated doses for 4 hours, and then phosphorylated JNK and total JNK were measured in parallel with FACE Kit (Qiogen). The resulting data were normalized to total cell number measured by crystal violet staining The phosphorylated JNK from each measurement were normalized to the ratio of phosphorylated JNK over total JNK values.

HT1080 cells [8] = test: pUC19 DNA transfection plus chemotherapeutic drug, cell viability; format: cell-based, human; conditions: for IC50 of Cis-Platinum: HT1080 cells
Experimental: HT1080 Cells were transfected with pUC19 DNA, pcDNA3, pUC19+pcDNA3, IKK1-KA+pUC19, IKK2-KA+pUC19, and IKK1-KA+IKK2-KA+pUC19, IKK1-KA+pcDNA3, IKK2-KA+pcDNA3, or IKK1-KA+IKK2-KA+pcDNA3, for 48 hours before the treatment of chemotherapy drugs at various doses. Cell viability was measured in 72 and 96 hours after drug treatment.
Drug treatment: Cis-Platinum 30 ng/ml-3 μg/ml (FIG. 6D), Paclitaxel 1 nM-10 μM (FIG. 6C), 5-FU 50 nM-500 μM (data not shown), Doxorubicin 30 nM-3.3 μM (data not shown).

HT1080 cells [9] = test: siRNA or Puc19 transfection combined with Taxel, cell viability by CCK8; format: cell-based, human; conditions: 72 hours after the treatment
Experimental: Method: HT1080 cells transfected with siRNAs that were derived from Puc19 DNA sequence and the siRNAs that targeting the corresponding genes that are the targets of the Puc19 derived siRNAs for 24 hours, then, treated with Taxel at 3, 10, 30, and 100 nM for 48 hours. After the 48 hours of Taxel treatment, cells in culture were changed to normal growth medium for 24 to 72 hours. Cell viability was monitored by CCK8 Kit every 24 hours. Data are normalized to % of untreated control cells. The siRNAs that used for this study includes siRNA#1, siRNA#2, siRHA#3, siRNA targeting TRPC6, SH3PXD2B, C6orf108, TTBK1, MAGI3, and TMEM182 as well as combination of siRNA#2+#3, and siRNA#1+#2+#3+#4+#5 (siRNAΣ1-5).

HT1080 cells [10] = test: Other tetrazolium salts as substitutes of WST-1r with apigenin, cell viability; format: cell-based, human; conditions: 1 mM WST-1, 0.4 mM WST-3, 0.5 mM WST-4, 0.5 mM WST-5, 0.12 mM mPMS; apigenin 10, 30 or 100 μM; 4 hours then 24 hours
Experimental: (§4) Method: HT1080 and UM-SCC6 cells were treated with 1 mM WST-1, 0.4 mM WST-3, 0.5 mM WST-4, 0.5 mM WST-5 or 0.12 mM mPMS alone or each of the WST-3, WST-4, and WST-5 at the same concentration in combination with 0.12 mM mPMS (0.4 mM WST-3+0.12 mM mPMS, 0.5 mM WST-4+0.12 mM mPMS, 0.5 mM WST-5+0.12 mM mPMS) plus 10, 30 or 100 μM apigenin for 4 hours and, then changed to normal growth medium for another 24 hours. Cell viability was measured with CCK8 Kit.

UM-SCC6 cells [11] = test: as above; format: cell-based, human; conditions: 1 mM WST-1, 0.4 mM WST-3, 0.5 mM WST-4, 0.5 mM WST-5, 0.12 mM mPMS; apigenin 10, 30 or 100 μM; 4 hours then 24 hours
Experimental: as §4

[12] = 4 hours, then 24 hours normal medium, combination 3% WST-1r with 100 μM apigenin or 10% WST-1r with 30 μM apigenin
[13] = combination of 30 μM apigenin and WST-3

Structure (SMILES): O=c1[nH]cc(F)c(=O)[nH]1 [5-FU, 5-fluoro-2,4-(1H,3H) pyrimidinedione]
- IC50 (UM-SCC-6 cells; pUC19 transfected UM-SCC6 cells): 200 µM
- IC50 (UM-SCC-6 cells; untransfected UM-SCC6 cells): > 1000 µM

- IC50 (A431 cells; Homo sapiens, A-431, in the presence of 10% WST-1r): 10 µM
- IC50 (MDA-MB-231 cells; Homo sapiens, MDA-MB-231, in the presence of 10% WST-1r): 10 µM
Structure (SMILES): O=c1cc(-c2ccc(O)cc2)oc2cc(O)cc(O)c12 [Apigenin, 4H-1-benzopyran-4-one,5,7-dihydroxy-2-(4-hydroxy-phenyl)-(9CI)]
- cell death / cell survival (A431 cells; [12]): little effect on cell survival
- cell death / cell survival (MDA-MB-231 cells; [12]): little effect on cell survival
- Apigenin 1050 (UM-SCC6 cells [1]; CCK8+apigenin): did not reached 1050
- IC50 (UM-SCC6 cells [1]; 10% WST-1r treated UM-SCC6 cells): 5 µM
- IC50 (UM-SCC6 cells [1]; 10% XTT treated UM-SCC6 cells): 25 µM
- Apigenin 1050 (UM-SCC6 cells [1]; apigenin only): did not reached 1050
- cell viabilities, single agent treatment [2]: little effect on cell viabilities
- cell death (HT1080 cells [3]): dose dependent cell death
- cell death (UM-SCC6 cells [4]): dose dependent cell death
- ROS generation, agent alone ([5]; 4 hours): no effect on ROS generation
- ROS generation ([5]; apigenin combined with CCK8, apigenin dose dependent): increase the ROS generation
- cell death, single agent [6]: no or limited effect of cell death
- cell death, single agent (non cancer HEKa cells): limited cell death
- cell death, single agent (SK-Mel-5 cells): dose dependent but limited cell death
- phosphorylation of JNK (ratio phosphorylated over total JNK) [7]: dose dependent induction of phosphorylation of JNK

Structure (SMILES): N.N.[Cl][Pt][Cl] [Cis-Platinum, cis-diamminedichloroplatinum]
- IC50 of Cis-Platinum (UM-SCC-6 cells; pUC19 transfected): 1 mg/L
- IC50 of Cis-Platinum (UM-SCC-6 cells; untransfecte control): 3 mg/L
- IC50 of Cis-Platinum (HT1080 cells [8]; pUC19 transfected): 0.3 mg/L
- IC50 of Cis-Platinum (HT1080 cells [8]; untransfecte control): 3 mg/L
- untransfected cells at 96 hours after drug treatment (HT1080 cells [8]): recovered and grown up

Structure (SMILES): CC(=O)O[C@H]1C(=O)[C@@]2(C)[C@H]([C@H](OC(=O)c3ccccc3)[C@]3(O)C[C@H](OC(=O)[C@H](O)[C@@H](NC(=O)c4ccccc4)c4ccccc4)C(C)=C1C3(C)C)[C@]1(OC(C)=O)CO[C@@H]1C[C@@H]2O [Paclitaxel]
- IC50 (HT1080 cells [9]; Homo sapiens, HT-1080, Contrl (untransfected)): 0.06 µM
- cell survival / cell death (HT1080 cells [9]; Taxel 3-100 nM): dose dependent cell death
- IC50 (HT1080 cells [8]; Homo sapiens, HT-1080, pUC19 transfected HT1080 cells, read-out: IC50 of texal): 0.02 µM
- response to texal (HT1080 cells [8]; untransfected HT1080 cells): did not show any response upto 100 nM
- untransfected cells at 96 hours after drug treatment (HT1080 cells [8]): recovered and grown up

Structure (SMILES): O=[N+]([O-])c1ccc(-[n+]2nc(-c3ccc(S(=O)(=O)[O-])cc3S(=O)(=O)[O-])nn2-c2ccc(I)cc2)c([N+](=O)[O-])c1.[Na+] [WST-3, 2-(4-Iodophenyl)-3-(2,4-dinitrophenyl)-5-(2,4-disulfophenyl)-2H-tetrazolium, sodium salt]
- cell death, single agent [6]: no or limited effect of cell death
- cell death, single agent (non cancer HEKa cells): limited cell death
- IC50 (non cancer HEKa cells; [13]): 40 µM
- cell death, single agent (SK-Mel-5 cells): dose dependent but limited cell death
- IC50 (SK-Mel-5 cells; [13]): 20 µM
- WST-3 IC50 in SK-Mel-5 compared with HEKa cells (SK-Mel-5 cells; combination with 30 μM apigenin): one fold less than that from HEKa cells

Structure (SMILES): COc1cc(-c2ccc(-n3nc(-c4ccc(C(=O)N(CCS(=O)(=O)[O-])CCS(=O)(=O)[O-])cc4)n[n+]3-c3nc4ccccc4s3)c(OC)c2)ccc1-n1nc(-c2ccc(C(=O)N(CCS(=O)(=O)[O-])CCS(=O)(=O)[O-])cc2)n[n+]1-c1nc2ccccc2s1.[Na+].[Na+] [WST-5]
- synergistic effect on inducing cell death in combination with apigenin (HT1080 cells [10]): no such effect
- synergistic effect on inducing cell death in combination with apigenin (UM-SCC6 cells [11]): no such effect
